Assays:
[1] = Interlayer (basal) spacing of montmorillonite clay treated with expansive-type precursors/modifiers; assay type: physicochemical
[2] = Interlayer (basal) spacing of kaolinite clay treated with expansive-type precursors/modifiers; assay type: physicochemical
Description: The penetration of the precursors is accelerated by means of the use of temperature, a turbulent regime homogenizer, ultrasound, pressure or a combination thereof. They can be dried by evaporation in a stove, lyophilization, centrifugation processes and/or gravimetric processes in solution or turbo-drying processes or by atomization processes.
In this example the modification process consists of a first step in which the purified kaolinite and montmorillonite clay fining agents are pretreated with an ethanol/water 50/50 (v/v) mixture at 50° C. This process was carried out together with an ultrasonic stirring treatment process for 1 hour and with stirring with a homogenizer for 2 hours to favor the intercalation of the precursor in the clay. The solvent was then removed by means of lyophilization and/or evaporation. […]

[3] = montmorillonite, spacing of the clay with the named modifier
[4] = kaolinite of Table 1, spacing of the clay with the named modifier

Molecule | dMODIFIER [1, 3] | dMODIFIER [2, 4] | further results
Calcium butyrate | 0.92 nm | – | –
C=COC(C)=O [Vinyl acetate] | – | 1.21 nm | –
OC[C@@H](O)[C@H]1OC[C@H](O)[C@H]1O [Sorbitan] | 1.09 nm | – | –
CC(O)CO (stereo not drawn) [1,2-Propanediol] | 1.09 nm | – | –
O=C(OC[C@H]1O[C@@H](OC(=O)c2cc(O)c(O)c(OC(=O)c3cc(O)c(O)c(O)c3)c2)[C@H](OC(=O)c2cc(O)c(O)c(OC(=O)c3cc(O)c(O)c(O)c3)c2)[C@@H](OC(=O)c2cc(O)c(O)c(OC(=O)c3cc(O)c(O)c(O)c3)c2)[C@@H]1OC(=O)c1cc(O)c(O)c(OC(=O)c2cc(O)c(O)c(O)c2)c1)c1cc(O)c(O)c(OC(=O)c2cc(O)c(O)c(O)c2)c1 [Tannic acid] | – | 1.09 nm | –
CC(N)=O [Acetamide] | – | 1.09 nm | –
OCCOCCO [Diethylene glycol] | 1.04 nm | – | –
O=C(O)CO [Glycolic acid] | 1.06 nm | – | –
O=C1C=CC(=O)O1 [Maleic anhydride] | – | 1.20 nm | –
C[S+](C)[O-] [Dimethyl sulfoxide (DMSO), Dimethyl sulfoxide] | – | 1.11 nm | –
FC(F)=C(F)F [Tetrafluoroethylene] | – | – | dMODIFIER [2]: 0.98 nm
CC(O)C(=O)O (stereo not drawn) [Lactic acid] | – | 1.08 nm | –
CC=O [Acetaldehyde] | – | 0.91 nm | –
C=CN1CCCC1=O [Vinyl pyrrolidone] | 1.23 nm | – | –
CC(=O)O [Acetic acid] | – | 1.10 nm | –
O [Water] | – | 0.78 nm | –
CCCCCC(=O)O [Hexanoic acid] | – | 1.23 nm | –
Manganese butyrate | 0.95 nm | – | –
C1CCCCC1 [Hexamethylene] | – | 1.02 nm | –
O=C(O)c1ccccc1O [Salicylic acid] | – | 1.07 nm | –

Molecule | dMODIFIER [1, 3] | dMODIFIER [2, 4] | further results
OC[C@@H](O)[C@@H](O)[C@H](O)[C@@H](O)CO [Sorbitol] | 1.19 nm | – | –
O=C(O)/C=C\C(=O)O [Maleic acid] | – | 1.20 nm | –
OCCCO [1,3-Propanediol] | 0.98 nm | – | –
O=C1CCCCCN1 [Caprolactam] | – | 1.18 nm | –
Manganese acetate | – | 1.41 nm | –
OC[C@@H](O)[C@@H](O)[C@@H](O)CO [Adonitol] | 1.04 nm | – | –
Sucrose acetoisobutyrate | 1.08 nm | – | –
CNC=O [N-methyl formamide (NMF), N-methyl formamide] | – | 1.02 nm | –
NN [Anhydrous hydrazine] | – | 0.96 nm | –
CC(O)CO (stereo not drawn) [Propylene glycol] | 1.01 nm | – | –
NN.O [Hydrated hydrazine] | – | 1.03 nm | –
O=C(O)CCCCC(=O)O [Adipic acid] | – | 1.03 nm | –
CCCC(=O)O [Butyric acid] | – | 1.01 nm | –
CC(=O)[O-].[K+] [Potassium acetate] | – | – | dMODIFIER [2]: 1.39 nm
Vinyl versatate | 1.11 nm | – | –
OCCOCCOCCO [Triethylene glycol] | 1.08 nm | – | –
C=CC(N)=O [Archylamide] | – | 1.14 nm | –
OCCO [Ethylene glycol] | – | – | dMODIFIER [1]: 0.95 nm
OCC(O)CO [Glycerol] | 1.02 nm | – | –
